Assay results as given in patent US20240101602A1, “ANTIMICROBIAL PEPTIDES AND METHOD OF PREVENTING OR TREATING INFECTION BY USING THE SAME” (priority 2020, published 2024).

Legend:
[1] = tested on: Xanthomonas euvesicatoria strain Xvt28; assay: MIC and MBC by serial dilution in 96-well plate; type: cell-based; settings: Xev Xvt28; Table 7
Experimental: (§1) The effect of peptide length on the antimicrobial activity was investigated by deciding the minimal inhibitory concentration (MIC) and minimal bactericidal concentration (MBC) for each peptide against the pathogen with the media and growth conditions of phytopathogenic bacteria and E. coli as described in Table 1. Single bacterial colony grown on an optimal rich agar medium was picked, and each grew in 3 mL of the same rich liquid medium for 4 to 6 h.
(§2) For experiments carried out in the rich medium, the bacterial broth culture was then diluted in the same medium to give a final concentration of OD600=0.08, and then further diluted 100 folds in the same medium.
(§3) For experiments carried out in the minimal medium, the bacterial cells were collected from the bacterial liquid culture by centrifugation, re-suspended in an optimal minimal medium to give a final concentration of OD600=0.08, and then further diluted 100 folds in the same minimal medium.
(§4) Fifty microliters of serially diluted peptides (2-fold the final concentration) were added in a 96-well polystyrene plate with 50 μL of the bacterial culture. The final concentrations of peptides were 0, 2, 4, 8, 16 and 32 μg/mL. The plates were incubated at an optimal temperature without shaking.
(§5) MBC was determined as the lowest peptide concentration at which no colonies formed.

[2] = tested on: Xanthomonas campestris pv. campestris strain Xcc17; assay: MIC and MBC by serial dilution in 96-well plate; type: cell-based; settings: Xcc Xcc17; Table 7
Experimental: as §1, §2, §3, §4, §5

[3] = tested on: Pectobacterium carotovorum subsp. carotovorum; type: cell-based
Summary of the method: (§6)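 Bacteria were grown 4–6 h, set to OD600=0.08 in rich or minimal medium, then diluted 100-fold. This inoculum was mixed 1:1 with 2-fold serial peptide dilutions and incubated static at optimal temperature. MIC was read from growth and MBC taken as the lowest concentration giving no colonies.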

Erwinia chrysanthemi = type: cell-based
Summary of the method: as §6

[4] = tested on: Pseudomonas syringae pv. tomato strain DC3000
Cgl FST02 = type: cell-based, Colletotricum gloeosporioides; settings: Cgl FST02; optimal minimal medium, crude peptides (Table 9)
[5] = tested on: Xanthomonas oryzae pv. oryzae strain Xoo28; settings: Xoo Xoo28; Table 7
in vitro = type: cell-based; settings: human, HEK293 cells
Experimental: PepD3 was dissolved in water and filtered through a 0.2-μm filter. The peptide concentration was quantitated by UV280 to make a stock solution of 5120 μg/mL. The pepD3 stock solution was serially diluted in the serum-free DMEM. […] The serum-free DMEM medium without peptide was used as negative control. Cell viability was assessed using the Cell Titer 96 Aqueous One Solution Cell Proliferation Assay (Promega), in accordance with the manufacturer's instructions. The absorbance was measured with an Infinite M1000 pro (Tecan) at a wavelength of 490 nm. Data were normalized to the negative control to obtain the percentage of cell viability.

[6] = tested on: Staphylococcus epidermidis ATCC 14990
[7] = tested on: Agrobacterium tumefaciens strain Atu C58C1
[8] = tested on: bacteria, fungal spores, and fungal mycelia; type: cell-based; settings: SYTOX Green, crude peptides, room temperature in dark for 2 h
[9] = tested on: Ralstonia solanacearum strain Pss4; settings: Rs Pss4; optimal minimal medium, crude peptides (Table 9)
[10] = tested on: Staphylococcus aureus BCRC 10777
Botrytis cinerea = type: cell-based; settings: Bc; optimal minimal medium, crude peptides (Table 9)
Eco DH5α = assay: MIC and MBC by serial dilution in 96-well plate; type: cell-based, Escherichia coli; settings: Table 7
Summary of the method: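 Log-phase bacteria in rich or minimal medium were adjusted to OD600=0.08, diluted 100-fold, and mixed 1:1 with 2-fold serial peptide dilutions (final 0–32 μg/mL). Plates were incubated at the optimal temperature without shaking. MBC is the lowest peptide concentration yielding no colonies.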

[11] = tested on: Ralstonia solanacearum strain Pss190; settings: Rs Pss190; optimal minimal medium, crude peptides (Table 9)

Ac-WKKLKKLLKKL-NH2 [pepD3]
MBC [1]: 3.0 µg/mL
MIC [1]: 3.0 µg/mL
MBC [2]: 2.0 µg/mL
MIC [2]: 2.0 µg/mL
MBC [3]: 14.3 µg/mL
MBC/MFC [3]: 13.3 µg/mL
MIC (Erwinia chrysanthemi): 32.0 µg/mL
MBC/MFC (Erwinia chrysanthemi; Ech, optimal minimal medium, crude peptides (Table 9)): — (“—” indicates no antimicrobial activity being detected at the highest peptide concentration (32 μg/mL) tested in this study.)
MBC [4]: 17.3 µg/mL
MIC [4]: 9.3 µg/mL
MBC/MFC (Cgl FST02): — (“—” indicates no antimicrobial activity being detected at the highest peptide concentration (32 μg/mL) tested in this study.)
MIC (Cgl FST02): — (“—” indicates no antimicrobial activity being detected at the highest peptide concentration (32 μg/mL) tested in this study.)
MBC [5]: 4.4 µg/mL
MIC [5]: 3.6 µg/mL
viability at 1 h, 32 µg/mL (in vitro): > 91%
MBC [6]: 32 µg/mL
MIC [6]: 16 µg/mL
MBC [7]: 2.4 µg/mL
membranolytic effect on the cell walls of bacteria, fungal spores, and fungal mycelia [8]: significant membranolytic effect
MBC/MFC [9]: — (“—” indicates no antimicrobial activity being detected at the highest peptide concentration (32 μg/mL) tested in this study.)
MIC [9]: — (“—” indicates no antimicrobial activity being detected at the highest peptide concentration (32 μg/mL) tested in this study.)
MBC [10]: 32 µg/mL
MIC [10]: 16 µg/mL
MBC/MFC (Botrytis cinerea): — (“—” indicates no antimicrobial activity being detected at the highest peptide concentration (32 μg/mL) tested in this study.)
MIC (Botrytis cinerea): — (“—” indicates no antimicrobial activity being detected at the highest peptide concentration (32 μg/mL) tested in this study.)
MBC (Eco DH5α): 13.5 µg/mL
MIC (Eco DH5α): 10.5 µg/mL
MBC/MFC [11]: — (“—” indicates no antimicrobial activity being detected at the highest peptide concentration (32 μg/mL) tested in this study.)
MIC [11]: — (“—” indicates no antimicrobial activity being detected at the highest peptide concentration (32 μg/mL) tested in this study.)
